In the supplement of paper PMC11451515:

Tested on: SEM cells
Test: cell viability relative to DMSO control; higher = less cytotoxic
Settings: 48 h
Procedure, shortened: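 Viability is expressed as a percentage of DMSO wells within each plate, and cell-free wells serve as background. Seeding densities in the 1536-well plates (5 μl) were 500 cells/well for NOMO1 or SEM leukemia cells and 1000 cells/well for P12-Ichikawa. Each line was adapted for at least four passages in each medium. Library compounds in DMSO were pin-dosed at 47 μM to 0.79 nM (11 points, threefold), and CellTiter-Glo One luminescence was read after 48 h at 37°C.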

## NC1=C(Cl)C(=CC=N1)OC2=C(F)C=C(NC(=O)\C3=C\N\C=C(C3=O)\C4=CC=C(F)C=C4)C=C2
HPLM + 10% dialyzed FBS, 0.000781 µM
  cell viability: 118%
HPLM + 10% dialyzed FBS, 0.00234 µM
  cell viability: 107%
HPLM + 10% dialyzed FBS, 0.00702 µM
  cell viability: 121%
HPLM + 10% dialyzed FBS, 0.0211 µM
  cell viability: 72.2%
HPLM + 10% dialyzed FBS, 0.0632 µM
  cell viability: 92.6%
HPLM + 10% dialyzed FBS, 0.19 µM
  cell viability: 72.6%
HPLM + 10% dialyzed FBS, 0.569 µM
  cell viability: 64.4%
HPLM + 10% dialyzed FBS, 1.71 µM
  cell viability: 64%
HPLM + 10% dialyzed FBS, 5.12 µM
  cell viability: 58.8%
HPLM + 10% dialyzed FBS, 15.4 µM
  cell viability: 64.1%
HPLM + 10% dialyzed FBS, 46.1 µM
  cell viability: 11.5%
RPMI 5 mM glucose + 10% FBS, 0.000781 µM
  cell viability: 129%
RPMI 5 mM glucose + 10% FBS, 0.00234 µM
  cell viability: 113%
RPMI 5 mM glucose + 10% FBS, 0.00702 µM
  cell viability: 115%
RPMI 5 mM glucose + 10% FBS, 0.0211 µM
  cell viability: 79.2%
RPMI 5 mM glucose + 10% FBS, 0.0632 µM
  cell viability: 76%
RPMI 5 mM glucose + 10% FBS, 0.19 µM
  cell viability: 70.5%
RPMI 5 mM glucose + 10% FBS, 0.569 µM
  cell viability: 65.3%
RPMI 5 mM glucose + 10% FBS, 1.71 µM
  cell viability: 76.2%
RPMI 5 mM glucose + 10% FBS, 5.12 µM
  cell viability: 49%
RPMI 5 mM glucose + 10% FBS, 15.4 µM
  cell viability: 46.7%
RPMI 5 mM glucose + 10% FBS, 46.1 µM
  cell viability: 3.66%
RPMI 5 mM glucose + 10% dialyzed FBS, 0.000781 µM
  cell viability: 140%
RPMI 5 mM glucose + 10% dialyzed FBS, 0.00234 µM
  cell viability: 103%
RPMI 5 mM glucose + 10% dialyzed FBS, 0.00702 µM
  cell viability: 115%
RPMI 5 mM glucose + 10% dialyzed FBS, 0.0211 µM
  cell viability: 65.7%
RPMI 5 mM glucose + 10% dialyzed FBS, 0.0632 µM
  cell viability: 60%
RPMI 5 mM glucose + 10% dialyzed FBS, 0.19 µM
  cell viability: 57.7%
RPMI 5 mM glucose + 10% dialyzed FBS, 0.569 µM
  cell viability: 59.1%
RPMI 5 mM glucose + 10% dialyzed FBS, 1.71 µM
  cell viability: 59.5%
RPMI 5 mM glucose + 10% dialyzed FBS, 5.12 µM
  cell viability: 57.9%
RPMI 5 mM glucose + 10% dialyzed FBS, 15.4 µM
  cell viability: 58.5%
RPMI 5 mM glucose + 10% dialyzed FBS, 46.1 µM
  cell viability: 4.6%
